Where “and” joins values, the source holds several entries; their conditions need not be identical. Identical values can stand only once.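 Cultured in 96-well plates, cells were exposed to test compound for 48 hours across five concentrations. GI50 is the concentration that inhibits growth by half. TGI marks complete inhibition of growth.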

One assay deals with HL-60(TB) leukemia. Nature of the assay: growth of human tumour cells (NCI), 48 h.
`CC(=O)OCC1OC(n2cnc(C(N)=S)c2N)C(OC(C)=O)C1OC(C)=O` (centres undefined): the TGI was above 100 µM.

Another assay concerns KM12 colon. Kind of assay: growth of human tumour cells (NCI), 48 h.
Regarding `COC(=O)c1nc(-c2ccccc2)oc1S(=O)(=O)Cc1ccccc1`, the GI50 was 20.8 µM and the TGI was 39.2 µM.
The like results for `CN(O)c1nc(N(C)O)nc(N2CCOCC2)n1` were, in that order, 15.5 µM and above 100 µM.
Regarding `COc1ccc(-c2c[nH]c(C(=O)O)c2-c2cc(OC)c(OC)c(OC)c2)cc1`, the GI50 is 4.59 µM and the TGI was above 100 µM.
On to `C#Cc1c(F)ccc2cc(O)cc(-c3ncc4c(N5CC6CCC(C5)N6)nc(OC[C@@]56CCCN5C[C@H](F)C6)nc4c3F)c12`, for which the GI50 was 5.03 µM and the TGI turned out to be 17.5 µM.
Turning to `C=C(C)C(=O)Nc1ccc(NC(C)C)cc1`, the GI50 was above 100 µM and the TGI is above 100 µM.
`COc1cc(CSc2nc3ccc(C)cc3c(=O)n2-c2ccccc2)cc(OC)c1OC`: the GI50 is 0.99 µM and the TGI is above 100 µM.
The like results for `C=C(C)C(=O)O[C@H]1CC(=C)[C@@H]2C[C@H](O)[C@](O)(CCl)[C@@H]2[C@H]2OC(=O)C(=C)[C@@H]21` were, in that order, 1.8 µM and 3.99 µM.
Consider `CCC1C2Cc3ccc(O)cc3C1(CC)CCN2C` (centres undefined), for which the TGI was above 100 µM.
As to `CC1CCC(NC(=O)N(CCCl)N=O)CC1` (centres undefined), the GI50 was 36.6 µM and the TGI worked out at 112 µM.
As for `COc1ccc(C2=CC(c3ccc4c(c3)OCO4)c3c(c4ccccc4oc3=O)O2)cc1OC` (centres undefined), the TGI was above 100 µM.
`CC(C)[C@H](N)C(=O)N1CCC[C@H]1B(O)O`: the GI50 was above 100 µM and the TGI was above 100 µM.
In the case of `CC(=O)OCC1OC(n2cnc(C(N)=S)c2N)C(OC(C)=O)C1OC(C)=O` (centres undefined), the TGI is above 100 µM.

The next assay has as its system HCT-15 colon. Kind of assay: growth of human tumour cells (NCI), 48 h.
On to `COC(=O)c1nc(-c2ccccc2)oc1S(=O)(=O)Cc1ccccc1`, for which the GI50 is 1.79 µM and the TGI was found to be 3.58 µM.
The like results for `CN(O)c1nc(N(C)O)nc(N2CCOCC2)n1` were, in that order, 0.637 µM and above 100 µM.
On to `COc1ccc(-c2c[nH]c(C(=O)O)c2-c2cc(OC)c(OC)c(OC)c2)cc1`, for which the GI50 was 3.66 µM and the TGI was above 100 µM.
Regarding `C#Cc1c(F)ccc2cc(O)cc(-c3ncc4c(N5CC6CCC(C5)N6)nc(OC[C@@]56CCCN5C[C@H](F)C6)nc4c3F)c12`, the GI50 is 34.7 µM and the TGI was above 50.6 µM.
As for `C=C(C)C(=O)Nc1ccc(NC(C)C)cc1`, the GI50 is above 100 µM and the TGI was above 100 µM.
Consider `COc1cc(CSc2nc3ccc(C)cc3c(=O)n2-c2ccccc2)cc(OC)c1OC`, for which the GI50 is 0.577 µM and the TGI is above 100 µM.
For the molecule `C=C(C)C(=O)O[C@H]1CC(=C)[C@@H]2C[C@H](O)[C@](O)(CCl)[C@@H]2[C@H]2OC(=O)C(=C)[C@@H]21`, the GI50 is 1.89 µM and the TGI turned out to be 4.42 µM.
`CCC1C2Cc3ccc(O)cc3C1(CC)CCN2C` (centres undefined) came in with a TGI above 100 µM.
As to `CC1CCC(NC(=O)N(CCCl)N=O)CC1` (centres undefined), the GI50 is 20.6 µM; the TGI was 43.4 µM and 82.8 µM.
For `COc1ccc(C2=CC(c3ccc4c(c3)OCO4)c3c(c4ccccc4oc3=O)O2)cc1OC` (centres undefined), the TGI was above 31.6 µM.
With `CC(C)[C@H](N)C(=O)N1CCC[C@H]1B(O)O`, the GI50 is above 100 µM and the TGI was above 100 µM.
Regarding `CC(=O)OCC1OC(n2cnc(C(N)=S)c2N)C(OC(C)=O)C1OC(C)=O` (centres undefined), the TGI was above 100 µM.

A further assay has as its system SF-295 CNS. Kind of assay: growth of human tumour cells (NCI), 48 h.
Regarding `COC(=O)c1nc(-c2ccccc2)oc1S(=O)(=O)Cc1ccccc1`, the GI50 is 16.5 µM and the TGI is 36.3 µM.
The like results for `CN(O)c1nc(N(C)O)nc(N2CCOCC2)n1` were, in that order, 2.57 µM and above 100 µM.
The like results for `COc1ccc(-c2c[nH]c(C(=O)O)c2-c2cc(OC)c(OC)c(OC)c2)cc1` were, in that order, 4.19 µM and above 100 µM.
As to `C#Cc1c(F)ccc2cc(O)cc(-c3ncc4c(N5CC6CCC(C5)N6)nc(OC[C@@]56CCCN5C[C@H](F)C6)nc4c3F)c12`, the GI50 was 15.9 µM and the TGI is 32 µM.
As to `C=C(C)C(=O)Nc1ccc(NC(C)C)cc1`, the GI50 is above 100 µM and the TGI was above 100 µM.
Take `COc1cc(CSc2nc3ccc(C)cc3c(=O)n2-c2ccccc2)cc(OC)c1OC`: the GI50 was 2.41 µM and the TGI was found to be 48 µM.
The like results for `C=C(C)C(=O)O[C@H]1CC(=C)[C@@H]2C[C@H](O)[C@](O)(CCl)[C@@H]2[C@H]2OC(=O)C(=C)[C@@H]21` were, in that order, 12.3 µM and 26.4 µM.
The molecule `CCC1C2Cc3ccc(O)cc3C1(CC)CCN2C` (centres undefined) came in with a TGI above 100 µM.
In the case of `CC1CCC(NC(=O)N(CCCl)N=O)CC1` (centres undefined), the GI50 is 53.7 µM and the TGI stood at 36.3 µM.
In turn, `COc1ccc(C2=CC(c3ccc4c(c3)OCO4)c3c(c4ccccc4oc3=O)O2)cc1OC` (centres undefined) had a TGI above 100 µM.
As for `CC(C)[C@H](N)C(=O)N1CCC[C@H]1B(O)O`, the GI50 was above 100 µM and the TGI is above 100 µM.
On to `CC(=O)OCC1OC(n2cnc(C(N)=S)c2N)C(OC(C)=O)C1OC(C)=O` (centres undefined), for which the TGI was above 100 µM.

The test system of another assay is PC-3 prostate. Kind of assay: growth of human tumour cells (NCI), 48 h.
With `COC(=O)c1nc(-c2ccccc2)oc1S(=O)(=O)Cc1ccccc1`, the GI50 was 15 µM and the TGI amounted to 29.4 µM.
For the molecule `CN(O)c1nc(N(C)O)nc(N2CCOCC2)n1`, the GI50 was 7.82 µM and the TGI is above 100 µM.
For `COc1ccc(-c2c[nH]c(C(=O)O)c2-c2cc(OC)c(OC)c(OC)c2)cc1`, the GI50 was 4.46 µM and the TGI was above 100 µM.
Take `C#Cc1c(F)ccc2cc(O)cc(-c3ncc4c(N5CC6CCC(C5)N6)nc(OC[C@@]56CCCN5C[C@H](F)C6)nc4c3F)c12`: the GI50 is 14.8 µM and the TGI is 33.8 µM.
The like results for `C=C(C)C(=O)Nc1ccc(NC(C)C)cc1` were, in that order, above 100 µM and above 100 µM.
In the case of `COc1cc(CSc2nc3ccc(C)cc3c(=O)n2-c2ccccc2)cc(OC)c1OC`, the GI50 was 3.25 µM and the TGI was above 100 µM.
Turning to `C=C(C)C(=O)O[C@H]1CC(=C)[C@@H]2C[C@H](O)[C@](O)(CCl)[C@@H]2[C@H]2OC(=O)C(=C)[C@@H]21`, the GI50 is 3.03 µM and the TGI turned out to be 10.4 µM.
As for `CCC1C2Cc3ccc(O)cc3C1(CC)CCN2C` (centres undefined), the TGI is above 100 µM.
The same measure, in the same setting: next, `CC1CCC(NC(=O)N(CCCl)N=O)CC1` (centres undefined): 96.6 µM.
The same measure, in the same setting: for `COc1ccc(C2=CC(c3ccc4c(c3)OCO4)c3c(c4ccccc4oc3=O)O2)cc1OC` (centres undefined) the value was above 100 µM.
For the molecule `CC(C)[C@H](N)C(=O)N1CCC[C@H]1B(O)O`, the GI50 was above 100 µM and the TGI was above 100 µM.
For the molecule `CC(=O)OCC1OC(n2cnc(C(N)=S)c2N)C(OC(C)=O)C1OC(C)=O` (centres undefined), the TGI is above 100 µM.

A further assay relates to HT29 colon. Nature of the assay: growth of human tumour cells (NCI), 48 h.
Consider `COC(=O)c1nc(-c2ccccc2)oc1S(=O)(=O)Cc1ccccc1`, for which the GI50 is 2.44 µM and the TGI was determined as 5.79 µM.
The like results for `CN(O)c1nc(N(C)O)nc(N2CCOCC2)n1` were, in that order, 4.67 µM and above 100 µM.
The like results for `COc1ccc(-c2c[nH]c(C(=O)O)c2-c2cc(OC)c(OC)c(OC)c2)cc1` were, in that order, 3.29 µM and above 100 µM.
For `C#Cc1c(F)ccc2cc(O)cc(-c3ncc4c(N5CC6CCC(C5)N6)nc(OC[C@@]56CCCN5C[C@H](F)C6)nc4c3F)c12`, the GI50 is 9.99 µM and the TGI worked out at 31 µM.
As for `C=C(C)C(=O)Nc1ccc(NC(C)C)cc1`, the GI50 was above 100 µM and the TGI is above 100 µM.
Consider `COc1cc(CSc2nc3ccc(C)cc3c(=O)n2-c2ccccc2)cc(OC)c1OC`, for which the GI50 is 0.759 µM and the TGI was above 100 µM.
The like results for `C=C(C)C(=O)O[C@H]1CC(=C)[C@@H]2C[C@H](O)[C@](O)(CCl)[C@@H]2[C@H]2OC(=O)C(=C)[C@@H]21` were, in that order, 2.89 µM and 7.42 µM.
`CCC1C2Cc3ccc(O)cc3C1(CC)CCN2C` (centres undefined) gave a TGI above 100 µM.
For `CC1CCC(NC(=O)N(CCCl)N=O)CC1` (centres undefined), the TGI was found to be 109 µM.
As to `COc1ccc(C2=CC(c3ccc4c(c3)OCO4)c3c(c4ccccc4oc3=O)O2)cc1OC` (centres undefined), the TGI was above 100 µM.
With `CC(C)[C@H](N)C(=O)N1CCC[C@H]1B(O)O`, the GI50 was above 100 µM and the TGI is above 100 µM.
On to `CC(=O)OCC1OC(n2cnc(C(N)=S)c2N)C(OC(C)=O)C1OC(C)=O` (centres undefined), for which the TGI is above 100 µM.
